Source: patent publication US20040044077A1, “Agents for inhibiting or restoring skin damage caused by drying and method for evaluating the same” (priority 2000, published 2004)

Tests used:
filaggrin gene = test: Expression level of the filaggrin gene (RT-PCR) in cultured human keratinocytes exposed to a gaseous phase (drying); format: cell-based; details: drying stimulus; for Relative expression level of filaggrin gene (%) Mean: no treatment = 100
Method: (§1) Normal keratinocytes of human preputial origin and 3T3 cells of mouse origin were used.
(§2) The culture medium was DMEM-Ham's F12 (3:1) containing hydrocortisone, cholera enterotoxin, epidermal growth factor, insulin and 10% FBS.
(§3) The keratinocytes were cultured according to the method described in Rheinwald et al., Cell, 6, 331-344(1975).
(§4) An outline is given below. 3T3 cells were treated with mitomycin C and used as a feeder layer. Normal human keratinocytes (1×10^5 cells) were inoculated onto mitomycin C-treated 3T3 cells and cultured at 37° C. in a 95% air-5% carbon dioxide environment until they became confluent. They were exposed to a gaseous phase by removing the culture supernatant. Each test substance was added 30 minutes before exposed to a gaseous phase, followed by incubation at 37° C. The culture to which no test sample was added was used as a control. The exposure to a gaseous phase was carried out at 37° C. for 0-6 hours.
After each test substance was added to the aforesaid culture system and the cells were exposed to a gaseous phase for a predetermined period of time, RNA was extracted from the cells according to the AGPC method. This RNA was subjected to RT-PCR in the following manner. A primer specific for fillaggrin was prepared on the basis of the base sequence of filaggrin which is reported in McKinley-Grant L. J. et al., Proc. Natl. Acad. Sci. U.S.A., 86, 4848-4852(1989). In order to assay mRNA for filaggrin, RT-PCR was carried out by converting mRNA to cDNA with the aid of reverse transcriptase. Using this cDNA as a template with the aforesaid primer, a polymerase reaction (a well-known reaction) was carried out. After the PCR product was electrophoresed in agarose gel, the resulting gel was soaked in an ethidium bromide solution and assayed for DNA. The quantitative analysis of DNA bands was carried out with NIH Image (analytical program). A correction was made with the aid of glyceraldehyde-3-phosphate dehydrogenase (G3PDH).
(6-8) The efficacies of other active ingredients and combinations of active ingredients in inhibiting a reduction in the expression of the filaggrin gene in cultured human keratinocytes as induced by drying are shown in Tables 1 and 2 below, respectively. In these tables, the degree to which the addition of a drug inhibited a reduction in gene expression is expressed as a percentage, assuming that the gene expression before drying is 100% and the gene expression after drying is […]. In Table 1, each active ingredient was added at an extract concentration of 0.5%. In Table 2, compositions containing the indicated active ingredient(s) at the indicated concentration(s) (in % by weight) were tested.
The aforesaid recovery rates (%) indicate the degree to which the addition of each test substance restored the expression level of the filaggrin gene as compared with that in the untreated group not exposed to a drying stimulus.

filaggrin protein = test: Amount of filaggrin protein (western blotting) in cultured human keratinocytes exposed to a gaseous phase (drying); format: cell-based; details: culture in the presence of 10% glycerol, FIG. 3
Method: as §1, §2, §3, §4
After each test substance was added to the aforesaid culture system and the cells were exposed to a gaseous phase for a predetermined period of time, protein was extracted from the cells. According to a conventional method, filaggrin protein or filaggrin protein precursor (profilaggrin) was determined by western blotting. An outline is given below. […] The quantitative analysis of bands was carried out with NIH Image (analytical program). […]

**Q.** For `OC[C@@H](O)[C@H](O)[C@@H](O)CO` [xylitol], which “Recovery rate (%)” value (filaggrin gene; 0.15% by weight) is on record?
**A.** The value was 5.7%.

**Q.** And the “Relative expression level of filaggrin gene (%) Mean” value (from here on “Relative expression level … (%) Mean”) (filaggrin gene; 0.15% by weight)?
**A.** Its value is 50%.

**Q.** What about the “Recovery rate (%)” value (filaggrin gene; 0.30% by weight) of the same molecule?
**A.** Its value is 37.7%.

**Q.** And the “Relative expression level … (%) Mean” value (filaggrin gene; 0.30% by weight)?
**A.** Its value is 67%.

**Q.** How did the “Recovery rate (%)” value (filaggrin gene; 0.15% by weight) turn out when `OCC(O)CO` [glycerol] was run?
**A.** The value was 7.5%.

**Q.** What about the “Relative expression level … (%) Mean” value (filaggrin gene; 0.15% by weight) of the same molecule?
**A.** The value was 51%.

**Q.** And the “Recovery rate (%)” value (filaggrin gene; 0.30% by weight)?
**A.** Its value is 60.4%.

**Q.** What about the “Relative expression level … (%) Mean” value (filaggrin gene; 0.30% by weight) of the same molecule?
**A.** The value was 79%.

**Q.** And the “effect on reduction in filaggrin protein level induced by drying” value (filaggrin protein)?
**A.** Its value is “inhibiting a reduction in filaggrin protein level”.
